Results published in patent US10925960B2, “Antigen delivery system” (SRI INTERNATIONAL, priority 2014, dated 2021).

System: LLC1 cells
Test: Coculture of liposome-treated LLC1 cells with lymphocytes from H250-vaccinated C57BL/6 mice, IFNγ secretion
Assay type: cell-based, mouse
Details: LLC1 cells treated with H1299.3-targeted liposomes containing H250 in presence of inhibitor, fixed, cocultured with lymphocytes
Procedure: We then generated murine CD8+ cells with TCR that recognizes MHC class I loaded H250 (1) by vaccinating C57BL/6 mice with an extended version of H250 and subsequently harvesting lymphocytes as a source of CD8+ T cells. LLC1 cells were treated with control or H1299.3-targeted liposomes containing H250, washed, and then incubated.
After allowing trafficking of the peptides to occur, the LLC1 cells were fixed and cocultured with lymphocytes as previously described.

| SMILES | Effect of inhibitor on IFNγ secretion / H250 presentation |
| --- | --- |
| CN(C)CCCN1c2ccccc2Sc2ccc(Cl)cc21 [Chlorpromazine] | reduced presentation |
| C[C@@H]1[C@H](O)[C@@H](C)/C=C/C=C/CC/C=C/C=C/C=C/C=C/C(O[C@H]2O[C@H](C)[C@@H](O)[C@H](N)[C@@H]2O)CC2O[C@](O)(CC(O)C(O)CCC(O)CC(O)CC(O)CC(=O)O[C@H]1C)CC(O)C2C(=O)O (stereo partly drawn) [Nystatin] | no effect |
| CCN(CC)CCCC(C)Nc1ccnc2cc(Cl)ccc12 (stereo not drawn) [chloroquine] | significant reduction in IFNγ secretion |
